Measurements reported in the OPERA property sets (Mansouri et al. 2018).
In brackets after ≈: the same amount, converted by molar mass.

conditions: 20 °C

Structure (SMILES)	solubility [mM]
c1ccc2[nH]cnc2c1	17 (≈ 2010 µg/mL)
c1ccc2[nH]ncc2c1	6.99 (≈ 826 µg/mL)

same assay, conditions: 25 °C

solubility [mM]	Structure (SMILES)
1.89e-05 (≈ 0.00477 µg/mL)	c1ccc2c(c1)c1cccc3ccc4cccc2c4c31
0.242 (≈ 31 µg/mL)	c1ccc2ccccc2c1
2.99e-05 (≈ 0.0085 µg/mL)	CCCCc1c2ccccc2cc2ccc3ccccc3c12
3e-06 (≈ 0.000798 µg/mL)	Cc1c2ccccc2c2ccc3cccc4ccc1c2c43
1.06e-05 (≈ 0.00272 µg/mL)	Cc1cccc2c1c(C)cc1cc3ccccc3cc12

The remaining lines, values behind:

Structure (SMILES)	solubility [mM]
Cc1nc2ccccc2[nH]1	11 (≈ 1450 µg/mL)
c1ccc2cc3c(cc2c1)-c1cccc2cccc-3c12	3.17e-06 (≈ 0.0008 µg/mL)
c1ccc2nccnc2c1	5070 (≈ 660000 µg/mL)
c1ccc2c(c1)-c1ccc3ccc4cccc5cc-2c1c3c45	6.88e-07 (≈ 0.00019 µg/mL)
c1ccc2cnccc2c1	35 (≈ 4520 µg/mL)
c1ccc2c(c1)ccc1ncccc12	0.439 (≈ 78.7 µg/mL)
Cc1c[nH]c2ccccc12	3.8 (≈ 498 µg/mL)

same assay, conditions: 27 °C

solubility [mM]	Structure (SMILES)
0.00016 (≈ 0.041 µg/mL)	CCc1c2ccccc2cc2c1ccc1ccccc12
